Laboratory results reported in ChEMBL document CHEMBL1201862, “PubChem BioAssay data set” (2004).
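Where inhibition never reached the appropriate level, the endpoint shown equals the highest concentration tested. Otherwise, values were interpolated linearly from a five-concentration, 48-hour dose response in 96-well plates. Abbreviation: GI50, concentration required for 50% inhibition of growth.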 The source made the active and inactive calls. Rule as the data show it: active = GI50 up to about 1.1 µM and inactive = higher.

How the values were obtained:
Experiment in all cases: inhibition of tumour cell growth, NCI panel, 48 h
SF-539 = system: SF-539
SF-268 = system: SF-268
SNB-19 = system: SNB-19
EKVX = system: EKVX
OVCAR-4 = system: OVCAR-4
Malme-3M = system: Malme-3M
COLO 205 = system: COLO 205
SK-MEL-28 = system: SK-MEL-28
LOX IMVI = system: LOX IMVI
CAKI-1 = system: CAKI-1
MCF7 = system: MCF7
UO-31 = system: UO-31
SN12C = system: SN12C
HCT-15 = system: HCT-15
Hs-578T = system: Hs-578T
TK-10 = system: TK-10
A549 = system: A549
SF-295 = system: SF-295
MDA-MB-231 = system: MDA-MB-231
OVCAR-8 = system: OVCAR-8

Row | SMILES | GI50 (SF-539) | GI50 (SF-268) | GI50 (SNB-19) | GI50 (EKVX) | GI50 (OVCAR-4) | GI50 (Malme-3M) | GI50 (COLO 205) | GI50 (SK-MEL-28) | GI50 (LOX IMVI) | GI50 (CAKI-1) | GI50 (MCF7) | GI50 (UO-31) | GI50 (SN12C) | GI50 (HCT-15) [µM] | GI50 (Hs-578T) | GI50 (TK-10) | GI50 (A549) | GI50 (SF-295) | GI50 (MDA-MB-231) | GI50 (OVCAR-8)
1 | N#Cc1nc(C2CCC2)oc1N | > 100 µM (inactive) | > 100 µM (inactive) | > 100 µM (inactive) | > 100 µM (inactive) | > 100 µM (inactive) | > 100 µM (inactive) | > 100 µM (inactive) | > 100 µM (inactive) | > 100 µM (inactive) | > 100 µM (inactive) | > 100 µM (inactive) | > 100 µM (inactive) | > 100 µM (inactive) | > 100 | > 100 µM (inactive) | > 100 µM (inactive) | > 100 µM (inactive) | > 100 µM (inactive) | > 100 µM (inactive) | > 100 µM (inactive)
2 | O=C(CSCC(=O)N/N=C\c1ccccc1F)N/N=C\c1ccccc1F | > 100 µM (inactive) | > 100 µM (inactive) | > 100 µM (inactive) | > 100 µM (inactive) | > 100 µM (inactive) | > 100 µM (inactive) | > 100 µM (inactive) | > 100 µM (inactive) | > 100 µM (inactive) | > 100 µM (inactive) | > 100 µM (inactive) | > 100 µM (inactive) | > 100 µM (inactive) | 63.2 | > 100 µM (inactive) | > 100 µM (inactive) | > 100 µM (inactive) | 41.7 µM (inactive) | > 100 µM (inactive) | 49.9 µM (inactive)
3 | CCOC(=O)c1c(OCC)[nH]c(=O)c(C(c2cccs2)c2c(O)c(C(=O)OCC)c(OCC)[nH]c2=O)c1O | 6.4 µM (inactive) | 10.2 µM (inactive) | 11.4 µM (inactive) | 11.5 µM (inactive) | 17.6 µM (inactive) | 8.36 µM (inactive) | 17.3 µM (inactive) | 13.1 µM (inactive) | 12.6 µM (inactive) | 18 µM (inactive) | 14.9 µM (inactive) | 10.9 µM (inactive) | 15.4 µM (inactive) | 14.5 | 21 µM (inactive) | 25.4 µM (inactive) | 14.5 µM (inactive) | 12 µM (inactive) | 11.1 µM (inactive) | 12.6 µM (inactive)
4 | C/C=C1/CN2CCC34C5=CC(=O)C(c6cc7c(cc6OC)N(C)C6=C(C(=O)OC)CC8(CC)CCCN9CCC67C98)=CC5=NC23CCC1C4C(=O)OC (stereo not given) | 14.6 µM (inactive) | 18 µM (inactive) | 16 µM (inactive) | 13.8 µM (inactive) | 14 µM (inactive) | 15 µM (inactive) | 8.61 µM (inactive) | 16.8 µM (inactive) | 16.7 µM (inactive) | 9.51 µM (inactive) | 9.14 µM (inactive) | 12.1 µM (inactive) | 14.5 µM (inactive) | 14.6 | 7.21 µM (inactive) | 17 µM (inactive) | 16.2 µM (inactive) | 17.7 µM (inactive) | 10.2 µM (inactive) | 14.9 µM (inactive)
5 | N=C(N)N/N=C/c1c(-c2ccccc2[N+](=O)[O-])nc2sccn12 | 19.2 µM (inactive) | 28.8 µM (inactive) | 23.8 µM (inactive) | 43.8 µM (inactive) | 45.9 µM (inactive) | 15.7 µM (inactive) | 15.8 µM (inactive) | 30.8 µM (inactive) | 19.9 µM (inactive) | 64.9 µM (inactive) | 19.1 µM (inactive) | 36.8 µM (inactive) | 32.5 µM (inactive) | > 100 | 29.1 µM (inactive) | 23.6 µM (inactive) | 34.1 µM (inactive) | 22 µM (inactive) | 16.1 µM (inactive) | 32.2 µM (inactive)
6 | C=C1C(=O)O[C@@H]2C[C@@]3(C)CC(=O)C=C(C)[C@@H]3C[C@H]12 | 13.3 µM (inactive) | 11.8 µM (inactive) | 17.3 µM (inactive) | 12.2 µM (inactive) | 9.1 µM (inactive) | 5.98 µM (inactive) | 3.37 µM (inactive) | 5.73 µM (inactive) | 13.9 µM (inactive) | 8.36 µM (inactive) | 3.22 µM (inactive) | 11.5 µM (inactive) | 11.1 µM (inactive) | 4.03 | 27.2 µM (inactive) | 10.2 µM (inactive) | 29.6 µM (inactive) | 33.1 µM (inactive) | 16.9 µM (inactive) | 15 µM (inactive)
7 | O=[N+]([O-])C1(CO)COC2(OC1)c1ccccc1-c1ccccc12 | > 69.3 µM (inactive) | 52.8 µM (inactive) | > 100 µM (inactive) | > 100 µM (inactive) | > 100 µM (inactive) | 48.5 µM (inactive) | 40.5 µM (inactive) | > 100 µM (inactive) | 45.6 µM (inactive) | > 100 µM (inactive) | 48 µM (inactive) | > 100 µM (inactive) | 70.1 µM (inactive) | 59.4 | > 100 µM (inactive) | > 100 µM (inactive) | > 100 µM (inactive) | > 100 µM (inactive) | > 100 µM (inactive) | > 78.3 µM (inactive)
